From US20250223268A1, “4-Methylsulfonylbenzamide Compound, Preparation Method, Herbicidal Composition And Use” (Jiangsu Flag Chemical Industry Co., Ltd., priority 2022, published 2025)

How the values were obtained:
Assay in all cases: Greenhouse herbicidal activity assay, post-emergence
Assay type in all cases: in vivo
Details in all cases: Post-emergence test, rate 150 g a.i./hm^2, grade by fresh weight inhibition rate
Echinochloa crusgalli = test system: Echinochloa crusgalli
Outline: (§1)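 Graded A (≥80%) to E (<20%) by fresh weight inhibition, read 14-21 days after spraying. Plants were pot-grown in a growth chamber and received foliar application at the 3-6 leaf stage, being air-dried and returned to the chamber afterwards.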

Digitaria sanguinalis = test system: Digitaria sanguinalis
Outline: as §1

Cyperus iria = test system: Cyperus iria
Outline: as §1

Eclipta prostrata = test system: Eclipta prostrata
Outline: as §1

Leptochloa chinensis = test system: Leptochloa chinensis
Outline: as §1

CCCC[S+]([O-])c1c(S(C)(=O)=O)ccc(C(=O)Nc2ncnn2C)c1Cl (racemic) [Compound 2-12]
Control efficacy grade, Echinochloa crusgalli (Echinochloa crusgalli): A (Fresh weight inhibition rate≥80% to 100%)
Control efficacy grade, Digitaria sanguinalis (Digitaria sanguinalis): A (Fresh weight inhibition rate≥80% to 100%)
Control efficacy grade, Cyperus iria (Cyperus iria): A (Fresh weight inhibition rate≥80% to 100%)
Control efficacy grade, Eclipta prostrata (Eclipta prostrata): A (Fresh weight inhibition rate≥80% to 100%)
Control efficacy grade, Leptochloa chinensis (Leptochloa chinensis): A (Fresh weight inhibition rate≥80% to 100%)

C=CC[S+]([O-])c1c(S(C)(=O)=O)ccc(C(=O)Nc2nnc(CC)o2)c1Cl (racemic) [Compound 3-455]
Control efficacy grade, Echinochloa crusgalli (Echinochloa crusgalli): A (Fresh weight inhibition rate≥80% to 100%)
Control efficacy grade, Digitaria sanguinalis (Digitaria sanguinalis): A (Fresh weight inhibition rate≥80% to 100%)
Control efficacy grade, Cyperus iria (Cyperus iria): A (Fresh weight inhibition rate≥80% to 100%)
Control efficacy grade, Eclipta prostrata (Eclipta prostrata): A (Fresh weight inhibition rate≥80% to 100%)
Control efficacy grade, Leptochloa chinensis (Leptochloa chinensis): A (Fresh weight inhibition rate≥80% to 100%)

Cn1nnnc1NC(=O)c1ccc(S(C)(=O)=O)c(S(=O)(=O)CC(F)(F)F)c1Cl [Compound 1-56]
Control efficacy grade, Echinochloa crusgalli (Echinochloa crusgalli): A (Fresh weight inhibition rate≥80% to 100%)
Control efficacy grade, Digitaria sanguinalis (Digitaria sanguinalis): A (Fresh weight inhibition rate≥80% to 100%)
Control efficacy grade, Cyperus iria (Cyperus iria): A (Fresh weight inhibition rate≥80% to 100%)
Control efficacy grade, Eclipta prostrata (Eclipta prostrata): A (Fresh weight inhibition rate≥80% to 100%)
Control efficacy grade, Leptochloa chinensis (Leptochloa chinensis): A (Fresh weight inhibition rate≥80% to 100%)

Cn1nnnc1NC(=O)c1ccc(S(C)(=O)=O)c([S+]([O-])C2CC2)c1Cl (racemic) [Compound 1-33]
Control efficacy grade, Echinochloa crusgalli (Echinochloa crusgalli): A (Fresh weight inhibition rate≥80% to 100%)
Control efficacy grade, Digitaria sanguinalis (Digitaria sanguinalis): A (Fresh weight inhibition rate≥80% to 100%)
Control efficacy grade, Cyperus iria (Cyperus iria): A (Fresh weight inhibition rate≥80% to 100%)
Control efficacy grade, Eclipta prostrata (Eclipta prostrata): A (Fresh weight inhibition rate≥80% to 100%)
Control efficacy grade, Leptochloa chinensis (Leptochloa chinensis): A (Fresh weight inhibition rate≥80% to 100%)

CCc1nnc(NC(=O)c2ccc(S(C)(=O)=O)c([S+]([O-])C3CCCC3)c2Cl)o1 (racemic) [Compound 3-430]
Control efficacy grade, Echinochloa crusgalli (Echinochloa crusgalli): A (Fresh weight inhibition rate≥80% to 100%)
Control efficacy grade, Digitaria sanguinalis (Digitaria sanguinalis): A (Fresh weight inhibition rate≥80% to 100%)
Control efficacy grade, Cyperus iria (Cyperus iria): A (Fresh weight inhibition rate≥80% to 100%)
Control efficacy grade, Eclipta prostrata (Eclipta prostrata): A (Fresh weight inhibition rate≥80% to 100%)
Control efficacy grade, Leptochloa chinensis (Leptochloa chinensis): A (Fresh weight inhibition rate≥80% to 100%)

CCC[S+]([O-])c1c(S(C)(=O)=O)ccc(C(=O)Nc2nnnn2C)c1Cl (single isomer, unassigned) [Compound 1-3]
Control efficacy grade, Echinochloa crusgalli (Echinochloa crusgalli): A (Fresh weight inhibition rate≥80% to 100%)
Control efficacy grade, Digitaria sanguinalis (Digitaria sanguinalis): A (Fresh weight inhibition rate≥80% to 100%)
Control efficacy grade, Cyperus iria (Cyperus iria): A (Fresh weight inhibition rate≥80% to 100%)
Control efficacy grade, Eclipta prostrata (Eclipta prostrata): A (Fresh weight inhibition rate≥80% to 100%)
Control efficacy grade, Leptochloa chinensis (Leptochloa chinensis): A (Fresh weight inhibition rate≥80% to 100%)

Cn1nnnc1NC(=O)c1ccc(S(C)(=O)=O)c([S+]([O-])CC#N)c1Cl (racemic) [Compound 1-63]
Control efficacy grade, Echinochloa crusgalli (Echinochloa crusgalli): A (Fresh weight inhibition rate≥80% to 100%)
Control efficacy grade, Digitaria sanguinalis (Digitaria sanguinalis): B (Fresh weight inhibition rate≥260% to <80%)
Control efficacy grade, Cyperus iria (Cyperus iria): A (Fresh weight inhibition rate≥80% to 100%)
Control efficacy grade, Eclipta prostrata (Eclipta prostrata): A (Fresh weight inhibition rate≥80% to 100%)
Control efficacy grade, Leptochloa chinensis (Leptochloa chinensis): A (Fresh weight inhibition rate≥80% to 100%)

C=C(C)C[S+]([O-])c1c(S(C)(=O)=O)ccc(C(=O)Nc2nnc(C)o2)c1Cl (racemic) [Compound 3-143]
Control efficacy grade, Echinochloa crusgalli (Echinochloa crusgalli): A (Fresh weight inhibition rate≥80% to 100%)
Control efficacy grade, Digitaria sanguinalis (Digitaria sanguinalis): A (Fresh weight inhibition rate≥80% to 100%)
Control efficacy grade, Cyperus iria (Cyperus iria): A (Fresh weight inhibition rate≥80% to 100%)
Control efficacy grade, Eclipta prostrata (Eclipta prostrata): A (Fresh weight inhibition rate≥80% to 100%)
Control efficacy grade, Leptochloa chinensis (Leptochloa chinensis): A (Fresh weight inhibition rate≥80% to 100%)

CS(=O)(=O)c1ccc(C(=O)Nc2nnc(C3CC3)o2)c(Cl)c1SC1CC1 [Compound 3-651]
Control efficacy grade, Echinochloa crusgalli (Echinochloa crusgalli): A (Fresh weight inhibition rate≥80% to 100%)
Control efficacy grade, Digitaria sanguinalis (Digitaria sanguinalis): A (Fresh weight inhibition rate≥80% to 100%)
Control efficacy grade, Cyperus iria (Cyperus iria): A (Fresh weight inhibition rate≥80% to 100%)
Control efficacy grade, Eclipta prostrata (Eclipta prostrata): A (Fresh weight inhibition rate≥80% to 100%)
Control efficacy grade, Leptochloa chinensis (Leptochloa chinensis): A (Fresh weight inhibition rate≥80% to 100%)

Cc1nonc1NC(=O)c1ccc(S(C)(=O)=O)c([S+]([O-])C2CC2)c1Cl (racemic) [Compound 4-38]
Control efficacy grade, Echinochloa crusgalli (Echinochloa crusgalli): A (Fresh weight inhibition rate≥80% to 100%)
Control efficacy grade, Digitaria sanguinalis (Digitaria sanguinalis): A (Fresh weight inhibition rate≥80% to 100%)
Control efficacy grade, Cyperus iria (Cyperus iria): A (Fresh weight inhibition rate≥80% to 100%)
Control efficacy grade, Eclipta prostrata (Eclipta prostrata): A (Fresh weight inhibition rate≥80% to 100%)
Control efficacy grade, Leptochloa chinensis (Leptochloa chinensis): A (Fresh weight inhibition rate≥80% to 100%)

CCc1nnc(NC(=O)c2ccc(S(C)(=O)=O)c([S+]([O-])C3CCCCC3)c2Cl)o1 (racemic) [Compound 3-435]
Control efficacy grade, Echinochloa crusgalli (Echinochloa crusgalli): A (Fresh weight inhibition rate≥80% to 100%)
Control efficacy grade, Digitaria sanguinalis (Digitaria sanguinalis): A (Fresh weight inhibition rate≥80% to 100%)
Control efficacy grade, Cyperus iria (Cyperus iria): A (Fresh weight inhibition rate≥80% to 100%)
Control efficacy grade, Eclipta prostrata (Eclipta prostrata): A (Fresh weight inhibition rate≥80% to 100%)
Control efficacy grade, Leptochloa chinensis (Leptochloa chinensis): A (Fresh weight inhibition rate≥80% to 100%)

Cn1nnnc1NC(=O)c1ccc(S(C)(=O)=O)c([S+]([O-])C2CCC2)c1Cl (racemic) [Compound 1-38]
Control efficacy grade, Echinochloa crusgalli (Echinochloa crusgalli): A (Fresh weight inhibition rate≥80% to 100%)
Control efficacy grade, Digitaria sanguinalis (Digitaria sanguinalis): A (Fresh weight inhibition rate≥80% to 100%)
Control efficacy grade, Cyperus iria (Cyperus iria): A (Fresh weight inhibition rate≥80% to 100%)
Control efficacy grade, Eclipta prostrata (Eclipta prostrata): A (Fresh weight inhibition rate≥80% to 100%)
Control efficacy grade, Leptochloa chinensis (Leptochloa chinensis): B (Fresh weight inhibition rate≥260% to <80%)

CCC[S+]([O-])c1c(S(C)(=O)=O)ccc(C(=O)Nc2nnco2)c1Cl (centres unmarked) [Compound 3-268, 2-chloro-4-(methylsulfonyl)-N-(1,3,4-oxadiazol-2-yl)-3-(propylsulfinyl)benzamide]
pest or weed control at 150 g/ha (Echinochloa crusgalli; Echinochloa crus-galli, read-out: Control efficacy grade, Echinochloa crusgalli): 80 to 100%
pest or weed control at 150 g/ha (Digitaria sanguinalis; Digitaria sanguinalis, read-out: Control efficacy grade, Digitaria sanguinalis): 80 to 100%
pest or weed control at 150 g/ha (Cyperus iria; Cyperus iria, read-out: Control efficacy grade, Cyperus iria): 80 to 100%
pest or weed control at 150 g/ha (Eclipta prostrata; Eclipta prostrata, read-out: Control efficacy grade, Eclipta prostrata): 80 to 100%
pest or weed control at 150 g/ha (Leptochloa chinensis; Dinebra chinensis, read-out: Control efficacy grade, Leptochloa chinensis): 80 to 100%

Cn1ncnc1NC(=O)c1ccc(S(C)(=O)=O)c([S+]([O-])CC2CC2)c1Cl (single isomer, unassigned) [Compound 2-29]
Control efficacy grade, Echinochloa crusgalli (Echinochloa crusgalli): A (Fresh weight inhibition rate≥80% to 100%)
Control efficacy grade, Digitaria sanguinalis (Digitaria sanguinalis): A (Fresh weight inhibition rate≥80% to 100%)
Control efficacy grade, Cyperus iria (Cyperus iria): A (Fresh weight inhibition rate≥80% to 100%)
Control efficacy grade, Eclipta prostrata (Eclipta prostrata): A (Fresh weight inhibition rate≥80% to 100%)
Control efficacy grade, Leptochloa chinensis (Leptochloa chinensis): A (Fresh weight inhibition rate≥80% to 100%)

Cn1nnnc1NC(=O)c1ccc(S(C)(=O)=O)c([S+]([O-])C2CCCCC2)c1Cl (racemic) [Compound 1-48]
Control efficacy grade, Echinochloa crusgalli (Echinochloa crusgalli): A (Fresh weight inhibition rate≥80% to 100%)
Control efficacy grade, Digitaria sanguinalis (Digitaria sanguinalis): A (Fresh weight inhibition rate≥80% to 100%)
Control efficacy grade, Cyperus iria (Cyperus iria): A (Fresh weight inhibition rate≥80% to 100%)
Control efficacy grade, Eclipta prostrata (Eclipta prostrata): A (Fresh weight inhibition rate≥80% to 100%)
Control efficacy grade, Leptochloa chinensis (Leptochloa chinensis): A (Fresh weight inhibition rate≥80% to 100%)

CC(C)c1nnc(NC(=O)c2ccc(S(C)(=O)=O)c([S+]([O-])CC3CC3)c2Cl)o1 (racemic) [Compound 3-531]
Control efficacy grade, Echinochloa crusgalli (Echinochloa crusgalli): A (Fresh weight inhibition rate≥80% to 100%)
Control efficacy grade, Digitaria sanguinalis (Digitaria sanguinalis): A (Fresh weight inhibition rate≥80% to 100%)
Control efficacy grade, Cyperus iria (Cyperus iria): A (Fresh weight inhibition rate≥80% to 100%)
Control efficacy grade, Eclipta prostrata (Eclipta prostrata): A (Fresh weight inhibition rate≥80% to 100%)
Control efficacy grade, Leptochloa chinensis (Leptochloa chinensis): A (Fresh weight inhibition rate≥80% to 100%)
